{"source": "patent US20170246163A1", "about": "“METHODS OF IMPROVING BALANCE, GAIT OR BOTH IN PATIENTS WITH NEUROLOGICAL DISEASE” (priority 2016, published 2017)", "origin": "cited, not measured here", "key": {"[1]": {"system": "patients with either PD, PD-MCI, or PDD", "conditions": "176 patients with PD, 12 months, p<0.01"}, "[2]": {"system": "subjects with mild-to-moderate Alzheimer's disease", "conditions": "48 weeks"}, "[3]": {"system": "subjects with moderate Alzheimer's disease", "conditions": "Phase 2"}, "[4]": {"system": "PD patients experiencing frequent falls", "conditions": "crossover versus placebo, p<0.05"}}, "note": "Where two headings read alike, the source gives them in different places.", "data": [{"molecule": "CCN(C)C(=O)Oc1cccc([C@H](C)N(C)C)c1", "note": "[rivastigmine]", "values": [{"measurement": "lowering of the incidence of falls relative to baseline", "setting": "[1]", "result": 50, "unit": "%"}]}, {"molecule": "O=S(=O)(c1ccccc1)c1cnc2c(N3CCNCC3)cccc2c1", "note": "[intepirdine, 3-phenylsulfonyl-8-piperazinyl-1yl-quinoline]", "values": [{"measurement": "subjects who experienced falls", "setting": "[2]; on top of donepezil", "result": 2, "unit": "%"}]}, {"molecule": "COc1cc2c(cc1OC)C(=O)C(CC1CCN(Cc3ccccc3)CC1)C2", "note": "(stereo not drawn) [donepezil]", "values": [{"measurement": "subjects who experienced falls", "setting": "[2]; donepezil alone", "result": 6, "unit": "%"}, {"measurement": "subjects who experienced falls", "setting": "[3]; donepezil alone", "result": 6, "unit": "%"}, {"measurement": "falls reported while on treatment", "setting": "[4]", "result": 0.13, "unit": "falls/day"}]}, {"molecule": "Fc1ccc2c(CCNCc3cccc(OCC(F)(F)C(F)F)c3)c[nH]c2c1", "note": "[idalopirdine]", "values": [{"measurement": "subjects who experienced falls", "setting": "[3]; on top of donepezil", "result": 2, "unit": "%"}]}]}
